Molecular target: T1, hTDO2 (Homo sapiens, UniProt P48775)
T1 construct: endogenous in cells; host or cells: A172 human brain glioblastoma cells (ATCC CRL-1620)
Assay: Cellular assay for TDO2 activity determination in A172 cells
Format: cell-based
Details: human glioblastoma A172 cells naturally expressing hTDO2; overnight incubation; kynurenine by absorbance at 480 nm
Method in brief: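 A172 glioblastoma cells endogenously expressing hTDO2, 1.25×10^4 cells/well, incubated overnight at 37 °C, 5% CO2 in IMDM with 2% FBS and ten compound concentrations. Supernatant kynurenine measured after TCA treatment and Ehrlich's reagent (4-dimethylaminobenzaldehyde) by absorbance at 480 nm against a kynurenine standard curve, then curve-fitted.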

T1 sequence (P48775 whole entry): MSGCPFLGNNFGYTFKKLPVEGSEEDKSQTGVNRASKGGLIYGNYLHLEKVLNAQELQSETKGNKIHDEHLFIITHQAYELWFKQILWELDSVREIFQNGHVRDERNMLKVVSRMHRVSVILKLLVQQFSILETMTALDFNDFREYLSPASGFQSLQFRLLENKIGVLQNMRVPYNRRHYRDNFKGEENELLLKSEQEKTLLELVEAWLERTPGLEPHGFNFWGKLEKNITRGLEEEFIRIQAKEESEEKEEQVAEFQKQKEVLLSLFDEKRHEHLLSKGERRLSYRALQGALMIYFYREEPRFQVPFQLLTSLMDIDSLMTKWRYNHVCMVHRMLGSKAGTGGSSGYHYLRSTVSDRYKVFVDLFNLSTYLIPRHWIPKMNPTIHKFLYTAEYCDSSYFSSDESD

Compound | IC50 [nM]
CC1c2cc(-c3c[nH]c4cc(F)ccc34)ccc2S(=O)(=O)N1CCO (single isomer, unassigned; (-)) [Example 64, (−)-5-(6-fluoro-1H-indol-3-yl)-2-(2-hydroxyethyl)-3-methyl-2,3-dihydrobenzo[d]isothiazole 1,1-dioxide] | 322
CC1c2cc(-c3c[nH]c4cc(F)ccc34)ccc2S(=O)(=O)N1C1CNC(=O)C1 (single isomer, unassigned; (-)) [Example 125, (−)-4-(5-(6-fluoro-1H-indol-3-yl)-3-methyl-1,1-dioxido-benzo[d]isothiazol-2(3H)-yl)pyrrolidin-2-one] | 505
CCOC(=O)NCCN1C(C)c2cc(-c3c[nH]c4cc(F)ccc34)ccc2S1(=O)=O (single isomer, unassigned; (+)) [Example 110, (+)-ethyl (2-(5-(6-fluoro-1H-indol-3-yl)-3-methyl-1,1-dioxidobenzo[d]isothiazol-2(3H)-yl)ethyl)carbamate] | 157
NC(=O)C1NS(=O)(=O)c2ccc(-c3c[nH]c4cc(F)ccc34)cc21 (single isomer, unassigned; (+)) [Example 16, (+)-5-(6-fluoro-1H-indol-3-yl)-2,3-dihydrobenzo[d]-isothiazole-3-carboxamide 1,1-dioxide] | 1380
CC(=O)N(C)CC1NS(=O)(=O)c2ccc(-c3c[nH]c4cc(F)ccc34)cc21 (single isomer, unassigned; (+)) [Example 27, (+)-N-((5-(6-fluoro-1H-indol-3-yl)-1,1-dioxido-2,3-dihydrobenzo[d]isothiazol-3-yl)methyl)-N-methylacetamide] | 226
CCCC1NS(=O)(=O)c2ccc(-c3c[nH]c4cc(F)ccc34)cc21 (single isomer, unassigned; (-)) [Example 7, (−)-5-(6-fluoro-1H-indol-3-yl)-3-propyl-2,3-dihydrobenzo[d]isothiazole 1,1-dioxide] | 1450
O=S1(=O)NC2(CC2)c2cc(-c3c[nH]c4cc(F)ccc34)ccc21 [Example 136, 5-(6-fluoro-1H-indol-3-yl)-2H-spiro[benzo[d]-isothiazole-3,1′-cyclopropane] 1,1-dioxide] | 233
CC1c2cc(-c3c[nH]c4cc(F)ccc34)ccc2S(=O)(=O)N1C1CNC1 (single isomer, unassigned; (-)) [Example 91, (−)-2-(azetidin-3-yl)-5-(6-fluoro-1H-indol-3-yl)-3-methyl-2,3-dihydrobenzo[d]isothiazole 1,1-dioxide] | 260
CC(=O)N1CCC(N2C(C)c3cc(-c4c[nH]c5cc(F)ccc45)ccc3S2(=O)=O)C1 (single isomer, unassigned; (+)) [Example 74, (+)-1-(3-(5-(6-fluoro-1H-indol-3-yl)-3-methyl-1,1-dioxidobenzo[d]isothiazol-2(3H)-yl)pyrrolidin-1-yl)ethanone] | 254
CC1c2cc(-c3c[nH]c4cc(F)ccc34)ccc2S(=O)(=O)N1CC(=O)N(C)C (single isomer, unassigned; (+)) [Example 114, (+) 2-(5-(6-fluoro-1H-indol-3-yl)-3-methyl-1,1-dioxidobenzo[d]isothiazol-2(3H)-yl)-N,N-dimethylacetamide] | 239
O=S1(=O)NC(C2CC2)c2cc(-c3c[nH]c4cc(F)ccc34)ccc21 (single isomer, unassigned; (+)) [Example 10, (+)-3-cyclopropyl-5-(6-fluoro-1H-indol-3-yl)-2,3-dihydrobenzo[d]isothiazole 1,1-dioxide] | 240
Cc1cc(O)n(CCN2C(C)c3cc(-c4c[nH]c5cc(F)ccc45)ccc3S2(=O)=O)n1 (single isomer, unassigned; (+)) [Example 67, (+)-5-(6-fluoro-1H-indol-3-yl)-2-(2-(5-hydroxy-3-methyl-1H-pyrazol-1-yl)ethyl)-3-methyl-2,3-dihydrobenzo[d]isothiazole 1,1-dioxide] | 9500
CNC(=O)C(CN1C(C)c2cc(-c3c[nH]c4cc(F)ccc34)ccc2S1(=O)=O)OC (single isomer, unassigned; (-)) [Example 106, (−)-3-(5-(6-fluoro-1H-indol-3-yl)-3-methyl-1,1-dioxidobenzo[d]isothiazol-2(3H)-yl)-2-methoxy-N-methylpropanamide] | 507

Results, then the compound that gave them:

IC50 [nM] | Compound
64 | CC(=O)N1CCC(N2C(C)c3cc(-c4c[nH]c5cc(F)ccc45)ccc3S2(=O)=O)CC1 (single isomer, unassigned; (-)) [Example 72, (−)-1-(4-(5-(6-fluoro-1H-indol-3-yl)-3-methyl-1,1-dioxidobenzo[d]isothiazol-2(3H)-yl)piperidin-1-yl)ethanone]
81 | O=S1(=O)c2ccc(-c3c[nH]c4cc(F)ccc34)cc2C(CO)N1CCO (single isomer, unassigned; (-)) [Example 132, (−)-5-(6-fluoro-1H-indol-3-yl)-2-(2-hydroxyethyl)-3-(hydroxymethyl)-2,3-dihydrobenzo[d]isothiazole 1,1-dioxide]
124 | O=S1(=O)c2ccc(-c3c[nH]c4cc(F)ccc34)cc2C(CO)N1CC(O)CO (single isomer, unassigned; (-)) [Example 142, (−)-2-(2,3-dihydroxypropyl)-5-(6-fluoro-1H-indol-3-yl)-3-(hydroxymethyl)-2,3-dihydrobenzo[d]isothiazole 1,1-dioxide]
76 | CC1c2cc(-c3c[nH]c4cc(F)ccc34)ccc2S(=O)(=O)N1CC[S+](C)[O-] (single isomer, unassigned; (+)) [Example 55, (+)-5-(6-fluoro-1H-indol-3-yl)-3-methyl-2-(2-(methylsulfinyl)ethyl)-2,3-dihydrobenzo[d]isothiazole 1,1-dioxide]
71 | CNC(=O)CCN1C(C)c2cc(-c3c[nH]c4cc(F)ccc34)ccc2S1(=O)=O (single isomer, unassigned; (+)) [Example 45, (+)-3-(5-(6-fluoro-1H-indol-3-yl)-3-methyl-1,1-dioxidobenzo[d]-isothiazol-2(3H)-yl)-N-methylpropanamide]
114 | CC1c2cc(-c3c[nH]c4cc(F)ccc34)ccc2S(=O)(=O)N1C[C@H](O)CO (single isomer, unassigned) [Example 95]
156 | COC(=O)NCC1NS(=O)(=O)c2ccc(-c3c[nH]c4cc(F)ccc34)cc21 (single isomer, unassigned; (-)) [Example 21, (−)-methyl ((5-(6-fluoro-1H-indol-3-yl)-1,1-dioxido-2,3-dihydrobenzo[d]isothiazol-3-yl)methyl)carbamate]
91 | CC1c2cc(-c3c[nH]c4cc(F)ccc34)ccc2S(=O)(=O)N1C1CCNC(=O)C1 (single isomer, unassigned; (+)) [Example 120]
110 | C[C@@H]1NS(=O)(=O)c2ccc(-c3c[nH]c4cc(F)ccc34)cc21 (single isomer, unassigned) [Example 2, (−)-5-(6-fluoro-1H-indol-3-yl)-3-methyl-2,3-dihydro-1,2-benzothiazole 1,1-dioxide]
39 | CC1c2cc(-c3c[nH]c4cc(F)ccc34)ccc2S(=O)(=O)N1C[C@@H](O)CO (single isomer, unassigned; (+)) [Example 94]
70 | CC1c2cc(-c3c[nH]c4cc(F)ccc34)ccc2S(=O)(=O)N1CCO (single isomer, unassigned; (+)) [Example 63, (+)-5-(6-fluoro-1H-indol-3-yl)-2-(2-hydroxyethyl)-3-methyl-2,3-dihydrobenzo[d]isothiazole 1,1-dioxide]
74 | O=S1(=O)NC(CO)c2cc(-c3c[nH]c4cc(F)ccc34)ccc21 (single isomer, unassigned; (-)) [Example 12, (−)-5-(6-fluoro-1H-indol-3-yl)-3-(hydroxymethyl)-2,3-dihydrobenzo[d]isothiazole 1,1-dioxide]
93 | CNC(=O)C(CN1C(C)c2cc(-c3c[nH]c4cc(F)ccc34)ccc2S1(=O)=O)OC (single isomer, unassigned; (-)) [Example 108, (−)-3-(5-(6-fluoro-1H-indol-3-yl)-3-methyl-1,1-dioxidobenzo[d]isothiazol-2(3H)-yl)-2-methoxy-N-methylpropanamide]
96 | CC1(C)NS(=O)(=O)c2ccc(-c3c[nH]c4cc(F)ccc34)cc21 [Example 5, 5-(6-fluoro-1H-indol-3-yl)-3,3-dimethyl-2,3-dihydrobenzo[d]isothiazole 1,1-dioxide]
91 | CC1c2cc(-c3c[nH]c4cc(F)ccc34)ccc2S(=O)(=O)N1CCC(=O)N1CCNCC1 (single isomer, unassigned; (+)) [Example 49, (+)-3-(5-(6-fluoro-1H-indol-3-yl)-3-methyl-1,1-dioxido-benzo [d]isothiazol-2(3H)-yl)-1-(piperazin-1-yl)propan-1-one]
77 | CC1c2cc(-c3c[nH]c4cc(F)ccc34)ccc2S(=O)(=O)N1C1CNC(=O)C1 (single isomer, unassigned; (+)) [Example 126, (+)-4-(5-(6-fluoro-1H-indol-3-yl)-3-methyl-1,1-dioxidobenzo[d]isothiazol-2(3H)-yl)pyrrolidin-2-one]
61 | CC1c2cc(-c3c[nH]c4cc(F)ccc34)ccc2S(=O)(=O)N1CC[S+](C)[O-] (single isomer, unassigned; (-)) [Example 57, (−)-5-(6-fluoro-1H-indol-3-yl)-3-methyl-2-(2-(methylsulfinyl)ethyl)-2,3-dihydrobenzo[d]isothiazole 1,1-dioxide]
50 | CC1c2cc(-c3c[nH]c4cc(F)ccc34)ccc2S(=O)(=O)N1CCN1CCOC1=O (single isomer, unassigned; (-)) [Example 70, (−)-3-(2-(5-(6-fluoro-1H-indol-3-yl)-3-methyl-1,1-dioxidobenzo[d]isothiazol-2(3H)-yl)ethyl)oxazolidin-2-one]

— patent publication US9873690B2, “3-indol substituted derivatives, pharmaceutical compositions and methods for use” (Pfizer Inc., priority 2015, dated 2018)
